Here are results for four compounds from US20100056524A1, “Compound” (priority 2008, published 2010).

Holding throughout (assay type): biochemical
One test has as its target T1, MKK1 (Homo sapiens, UniProt Q02750).
T1 construct: All protein kinases were of human origin and encoded full length proteins, unless indicated otherwise; made in house
In words: MKK1 protein kinase assay. The settings on record: for remaining activity at 10 µM: 10 μM compound; for residual kinase activity MKK1: 1 μm compound; for remaining activity at 1 µM: 1 μM compound. The text has this:
(§1) All protein kinases were of human origin and encoded full length proteins, unless indicated otherwise. They were either expressed as glutathione S-transferase (GST) fusion proteins in Escherichia Coli or as hexahistidine (His6)-tagged proteins in insect Sf21 cells. GST fusion proteins were purified by affinity chromatography on glutathione-Sepharose, and His6-tagged proteins on nickel/nitriloacetate-agarose. The procedures for expressing some of the protein kinases used herein have been detailed previously.^8,9 The following sections outline the DNA vectors synthesised and the procedures used to express and purifying protein kinases that have not been reported previously.
(§2) All assays (25.5 μl) were carried out at room temperature (21° C.) and were linear with respect to time and enzyme concentration under the conditions used. Assays were performed for 30 min using Multidrop Micro reagent dispensers (Thermo Electron Corporation, Waltham, Mass. 02454, USA) in a 96-well format. The concentration of magnesium acetate in the assays was 10 mM and the [γ-33P] ATP (800 cpm/pmol) was used at 5, 20 or 50 μM as indicated, in order to be at or below the Km for ATP for each enzyme. Protein kinases assayed at 5 μM ATP were: —ERK1, ERK8, PKBα, MARK3, Aurora C. Protein kinases assayed at 20 μM ATP were: —JNK1, PDK1, CHK1, CHK2, CDK2 and Aurora B. Protein kinases assayed at 50 μM ATP were: —MNK2, IKKepsilon and TBK1.
(§3) The assays were initiated with MgATP, stopped by addition of 5 μl of 0.5 M orthophosphoric acid and spotted on to P81 filterplates using a unifilter harvester (PerkinElmer, Boston, Mass. 02118, USA). The IC50 values of inhibitors were determined after carrying out assays at 10 different concentrations of each compound.
(§4) Unless stated otherwise, enzymes were diluted in 50 mM Tris/HCl pH 7.5, 0.1 mM EGTA, 1 mg/ml BSA, 0.1% (v/v) 2-mercaptoethanol and assayed in 50 mM Tris/HCl pH 7.5, 0.1 mM EGTA, 0.1% (v/v) 2-mercaptoethanol.

Another test addresses T2, P38b MAPK (Homo sapiens, UniProt Q15759).
T2 construct: All protein kinases were of human origin and encoded full length proteins, unless indicated otherwise; made in house
In words: P38b MAPK protein kinase assay. The settings on record: for remaining activity at 10 µM: 10 μM compound; for residual kinase activity P38b MAPK: 1 μm compound; for remaining activity at 1 µM: 1 μM compound.
Source text: as §1, §2, §3, §4

Another test deals with T3, MELK (Homo sapiens, UniProt Q14680).
T3 construct: All protein kinases were of human origin and encoded full length proteins, unless indicated otherwise; made in house
T3 sequence (Q14680 whole entry): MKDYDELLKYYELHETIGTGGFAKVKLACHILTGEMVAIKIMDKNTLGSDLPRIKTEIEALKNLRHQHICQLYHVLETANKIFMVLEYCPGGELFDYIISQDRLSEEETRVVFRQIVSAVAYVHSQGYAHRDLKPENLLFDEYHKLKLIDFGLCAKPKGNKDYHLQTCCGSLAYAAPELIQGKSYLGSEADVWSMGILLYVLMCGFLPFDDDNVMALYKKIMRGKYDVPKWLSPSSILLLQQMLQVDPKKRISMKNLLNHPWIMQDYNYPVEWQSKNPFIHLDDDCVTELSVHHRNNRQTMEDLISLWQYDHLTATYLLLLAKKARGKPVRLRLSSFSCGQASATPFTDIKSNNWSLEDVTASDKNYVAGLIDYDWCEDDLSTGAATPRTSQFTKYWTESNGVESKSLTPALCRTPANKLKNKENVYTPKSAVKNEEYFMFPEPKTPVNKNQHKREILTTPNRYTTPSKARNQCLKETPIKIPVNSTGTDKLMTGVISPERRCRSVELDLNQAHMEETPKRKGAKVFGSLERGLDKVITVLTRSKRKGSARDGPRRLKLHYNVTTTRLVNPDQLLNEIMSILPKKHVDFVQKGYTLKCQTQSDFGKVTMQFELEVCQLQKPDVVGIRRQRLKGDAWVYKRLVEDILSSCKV
In words: MELK protein kinase assay. The conditions noted are these: for remaining activity at 10 µM: 10 μM compound; for residual kinase activity MELK: 1 μm compound; for remaining activity at 1 µM: 1 μM compound.
Source text: as §1, §2, §3, §4

A further test concerns the target T4, NEK2a (Homo sapiens, UniProt P51955).
T4 construct: All protein kinases were of human origin and encoded full length proteins, unless indicated otherwise; made in house
T4 sequence (P51955 1-445): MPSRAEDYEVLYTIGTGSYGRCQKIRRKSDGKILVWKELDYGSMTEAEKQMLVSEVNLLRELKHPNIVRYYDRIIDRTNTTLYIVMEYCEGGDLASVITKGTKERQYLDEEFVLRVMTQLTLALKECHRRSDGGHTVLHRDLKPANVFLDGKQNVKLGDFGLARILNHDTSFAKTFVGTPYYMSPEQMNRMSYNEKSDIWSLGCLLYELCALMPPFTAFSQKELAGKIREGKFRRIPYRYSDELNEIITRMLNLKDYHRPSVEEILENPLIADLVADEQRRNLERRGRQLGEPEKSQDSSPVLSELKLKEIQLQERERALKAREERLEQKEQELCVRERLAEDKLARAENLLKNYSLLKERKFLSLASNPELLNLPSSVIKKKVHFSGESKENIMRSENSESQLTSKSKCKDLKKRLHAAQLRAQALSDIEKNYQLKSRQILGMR
In words: NEK2a protein kinase assay. The settings on record: for remaining activity at 10 µM: 10 μM compound; for residual kinase activity NEK2a: 1 μm compound; for remaining activity at 1 µM: 1 μM compound.
Source text: as §1, §2, §3, §4

The target in the next test is T5, EPH-B3 (Homo sapiens, UniProt P54753).
T5 construct: All protein kinases were of human origin and encoded full length proteins, unless indicated otherwise; made in house
T5 sequence (P54753 34-998): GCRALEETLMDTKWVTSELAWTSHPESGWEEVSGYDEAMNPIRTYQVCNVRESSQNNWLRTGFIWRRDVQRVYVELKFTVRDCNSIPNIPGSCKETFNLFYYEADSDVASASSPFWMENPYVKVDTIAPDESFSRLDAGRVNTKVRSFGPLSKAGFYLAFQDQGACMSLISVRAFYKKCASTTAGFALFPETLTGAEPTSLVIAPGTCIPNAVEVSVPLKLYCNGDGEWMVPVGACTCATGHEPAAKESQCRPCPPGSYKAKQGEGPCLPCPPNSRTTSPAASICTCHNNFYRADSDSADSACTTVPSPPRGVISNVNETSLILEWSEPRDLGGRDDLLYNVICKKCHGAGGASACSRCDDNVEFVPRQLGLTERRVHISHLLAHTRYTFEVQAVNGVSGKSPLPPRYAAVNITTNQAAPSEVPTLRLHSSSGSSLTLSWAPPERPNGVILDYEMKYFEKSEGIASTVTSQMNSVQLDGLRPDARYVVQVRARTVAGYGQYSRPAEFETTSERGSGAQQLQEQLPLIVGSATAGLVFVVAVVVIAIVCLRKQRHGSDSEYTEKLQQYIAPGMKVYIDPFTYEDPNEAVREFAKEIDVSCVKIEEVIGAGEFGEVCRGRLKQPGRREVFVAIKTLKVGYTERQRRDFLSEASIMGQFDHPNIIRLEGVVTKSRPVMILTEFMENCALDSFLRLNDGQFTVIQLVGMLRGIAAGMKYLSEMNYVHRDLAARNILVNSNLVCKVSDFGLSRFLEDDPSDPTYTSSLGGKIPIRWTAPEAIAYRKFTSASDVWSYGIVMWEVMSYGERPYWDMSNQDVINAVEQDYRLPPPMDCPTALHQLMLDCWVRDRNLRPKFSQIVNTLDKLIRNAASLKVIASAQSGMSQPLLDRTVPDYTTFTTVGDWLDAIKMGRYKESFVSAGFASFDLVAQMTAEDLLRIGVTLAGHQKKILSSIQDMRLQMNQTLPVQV
In words: EPH-B3 protein kinase assay. The conditions noted are these: for remaining activity at 10 µM: 10 μM compound; for residual kinase activity EPH-B3: 1 μm compound; for remaining activity at 1 µM: 1 μM compound.
Source text: as §1, §2, §3, §4

Setting [1] is: read-out: residual kinase activity MKK1.
Setting [2] is: read-out: residual kinase activity P38b MAPK.
Setting [3] is: read-out: residual kinase activity MELK.
[4] abbreviates: read-out: residual kinase activity NEK2a.
[5] abbreviates: read-out: residual kinase activity EPH-B3.
[6] abbreviates: MKK1, read-out: residual kinase activity.
[7] abbreviates: P38b MAPK, read-out: residual kinase activity.
[8] abbreviates: MELK, read-out: residual kinase activity.
The mark [9] stands for this setting: NEK2a, read-out: residual kinase activity.
[10] abbreviates: EPH-B3, read-out: residual kinase activity.

Counter-ions that a name gives are not always drawn. Like-named read-outs stand apart in the source and are kept apart here.

T1 sequence (Q02750 whole entry): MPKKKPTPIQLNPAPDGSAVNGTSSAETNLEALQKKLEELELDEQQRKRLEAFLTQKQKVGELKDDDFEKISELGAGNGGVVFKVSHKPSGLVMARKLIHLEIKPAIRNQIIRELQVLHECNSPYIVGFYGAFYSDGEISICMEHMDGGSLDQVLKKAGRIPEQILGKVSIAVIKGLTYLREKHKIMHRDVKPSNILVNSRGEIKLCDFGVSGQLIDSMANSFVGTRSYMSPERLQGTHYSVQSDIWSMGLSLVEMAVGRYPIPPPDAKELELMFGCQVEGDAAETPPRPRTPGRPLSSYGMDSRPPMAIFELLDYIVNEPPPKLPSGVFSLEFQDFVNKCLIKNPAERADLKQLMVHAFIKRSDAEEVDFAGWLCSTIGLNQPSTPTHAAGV
T2 sequence (Q15759 whole entry): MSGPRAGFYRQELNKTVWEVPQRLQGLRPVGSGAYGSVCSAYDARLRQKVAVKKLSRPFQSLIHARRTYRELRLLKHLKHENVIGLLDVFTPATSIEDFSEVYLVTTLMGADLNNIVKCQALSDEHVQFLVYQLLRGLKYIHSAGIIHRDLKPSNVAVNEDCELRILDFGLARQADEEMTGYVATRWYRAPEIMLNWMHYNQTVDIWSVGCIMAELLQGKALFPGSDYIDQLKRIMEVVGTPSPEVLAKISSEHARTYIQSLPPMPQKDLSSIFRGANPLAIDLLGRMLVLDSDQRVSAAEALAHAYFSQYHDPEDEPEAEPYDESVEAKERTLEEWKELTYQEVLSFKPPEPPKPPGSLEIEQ

With `O=C(NCCCNc1nc(Nc2cccc(F)c2)ncc1Br)C1CCC1` [Compound A, cyclobutanecarboxylic acid {3-[5-bromo-2-(3-fluoro-phenylamino)-pyrimidin-4-ylamino]-propyl}-amide, reference compound], the remaining activity at 10 µM stood at 2% on MKK1 (setting [1]); 80% at P38b MAPK (setting [2]); 14% at MELK (setting [3]); 57% on NEK2a (setting [4]); 69% on EPH-B3 (setting [5]). Besides, the “residual kinase activity MKK1” value on MKK1 worked out at 15%. Besides, at P38b MAPK, the “residual kinase activity P38b MAPK” value is given as 96%. The “residual kinase activity MELK” value at MELK amounted to 15%. The “residual kinase activity NEK2a” value on NEK2a is reported as 95%. Besides, the “residual kinase activity EPH-B3” value on EPH-B3 is on record as 92%.
With `O=C(NCCCNc1nc(Nc2cccc(N3CCCC3=O)c2)ncc1C1CC1)c1cccs1` [Example 47, Thiophene-2-carboxylic acid (3-{5-cyclopropyl-2-[3-(2-oxo-pyrrolidin-1-yl)-phenylamino]-pyrimidin-4-ylamino}-propyl)-amide. Hydrochloride salt], the remaining activity at 1 µM was 33% at MKK1 (setting [6]); 99% on P38b MAPK (setting [7]); 14% at MELK (setting [8]); 104% on NEK2a (setting [9]); 48% on EPH-B3 (setting [10]). Besides, the remaining activity at 10 µM came out at 17% on MKK1 (setting [6]); 90% on P38b MAPK (setting [7]); 27% on MELK (setting [8]); 79% on NEK2a (setting [9]); 93% at EPH-B3 (setting [10]).
For `O=C(NCCCNc1nc(Nc2cccnc2)ncc1C1CC1)c1cccs1` [Example 50, Thiophene-2-carboxylic acid {3-[5-cyclopropyl-2-(pyridin-3-ylamino)-pyrimidin-4-ylamino]-propyl}-amide], the remaining activity at 1 µM came out at 44% on MKK1 (setting [6]); 99% at P38b MAPK (setting [7]); 29% at MELK (setting [8]); 93% at NEK2a (setting [9]); 100% at EPH-B3 (setting [10]). Further, the remaining activity at 10 µM on MKK1 (setting [6]) came to 24%; on P38b MAPK (setting [7]), 89%; at MELK (setting [8]), 17%; at NEK2a (setting [9]), 71%; at EPH-B3 (setting [10]), 97%.
Take `O=C(NCCCNc1nc(Nc2cccc(F)c2)ncc1C1CC1)C1CCC1` [Example 23, Cyclobutanecarboxylic acid {3-[5-cyclopropyl-2-(3-fluoro-phenylamino)-pyrimidin-4-ylamino]-propyl}-amide]: the remaining activity at 10 µM worked out at 25% on MKK1 (setting [1]); 25% at MKK1 (setting [6]); 92% on P38b MAPK (setting [2]); 92% at P38b MAPK (setting [7]); 3% at MELK (setting [3]); 3% on MELK (setting [8]). The remaining activity at 10 µM is 65% at NEK2a (setting [4]), 65% at NEK2a (setting [9]), 95% at EPH-B3 (setting [5]) and 95% on EPH-B3 (setting [10]). At MKK1, the “residual kinase activity MKK1” value is 52%. The remaining activity at 1 µM on MKK1 (setting [6]) stood at 52%; on P38b MAPK (setting [7]), 86%; at MELK (setting [8]), 23%; on NEK2a (setting [9]), 91%; at EPH-B3 (setting [10]), 120%. The “residual kinase activity P38b MAPK” value on P38b MAPK came out at 86%. For the same compound, the “residual kinase activity MELK” value at MELK was found to be 23%. Further, the “residual kinase activity NEK2a” value at NEK2a was 91%. Further, the “residual kinase activity EPH-B3” value on EPH-B3 was 120%.
